Drawing on patent US20150175599A1, “FAAH Inhibitors” (Ironwood Pharmaceuticals, Inc., priority 2010, published 2015), this text covers IC50 and inhibition for 17 compounds.

Molecules are shown by their SMILES.

For one series, the target named is T1, FAAH (Homo sapiens, UniProt O00519).
T1 construct: Reactions were initiated by adding 12.5 μg of brain microsome; tissue ABS, Inc; host or cells: human brain cerebral cortex, membrane/microsome fraction pooled from 3 donors
T1 sequence (O00519 1-579): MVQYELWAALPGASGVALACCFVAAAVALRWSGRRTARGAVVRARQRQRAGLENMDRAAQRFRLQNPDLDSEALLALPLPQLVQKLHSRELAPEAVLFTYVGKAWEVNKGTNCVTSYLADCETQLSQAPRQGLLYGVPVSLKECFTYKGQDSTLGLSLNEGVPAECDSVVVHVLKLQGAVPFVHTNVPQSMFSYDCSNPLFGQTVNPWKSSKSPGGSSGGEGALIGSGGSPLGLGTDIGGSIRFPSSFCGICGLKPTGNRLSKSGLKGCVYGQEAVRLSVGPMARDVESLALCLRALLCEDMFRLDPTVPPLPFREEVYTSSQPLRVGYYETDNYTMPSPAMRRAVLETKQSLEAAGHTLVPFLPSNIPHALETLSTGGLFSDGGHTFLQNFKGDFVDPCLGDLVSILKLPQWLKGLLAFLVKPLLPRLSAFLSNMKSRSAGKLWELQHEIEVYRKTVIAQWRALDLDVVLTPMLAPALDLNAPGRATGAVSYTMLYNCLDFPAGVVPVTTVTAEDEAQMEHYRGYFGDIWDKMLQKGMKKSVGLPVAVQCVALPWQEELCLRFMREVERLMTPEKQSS
Description: FAAH inhibition, human brain membrane homogenate assay. It counts as biochemical. The following applies: human brain homogenate; average activity; read-out: Human brain Extract FAAH IC50.

In the next series the target is T2, hERG channel (Homo sapiens, UniProt Q12809).
T2 construct: expressed in transfected cells; host or cells: CHO (hERG-CHO), under Geneticin selection
Description: hERG channel inhibition, automated patch clamp (IonWorks HT, hERG-CHO). It counts as cell-based. The following applies: CHO cells expressing hERG, 600 s incubation; for inhibition at 600 s, 1 µM: 1 μM compound, read-out: hERG Channel Inhibition % (at 1 μM), vehicle-subtracted values; for inhibition at 600 s, 10 µM: 10 μM compound, read-out: hERG Channel Inhibition % (at 10 μM), vehicle-subtracted values. On the procedure: Human ether-a-gogo-related (hERG) ion channel encodes the inward rectifying voltage gated potassium channel in the heart and has a major role during the repolarization of the cardiac action potential. It is well established that blockade of this ion channel can lead to potentially lethal arrhythmias. hERG pre-clinical safety data is often used by regulatory agencies in elucidate the toxicity profile of certain compositions. The disclosed compounds of Table 1 were tested for their ability to inhibit hERG ion channels.
Media components include F12 Nutrient Mixture (Ham) with GlutaMAX™ (Invitrogen, Cat#31765), Fetal Bovine Serum, Certified (Invitrogen, Cat#16000-044—not heat activated), and Geneticin® Selective Antibiotic (Invitrogen, Cat#10131-027).
One vial of frozen cells, at 1.62×10^6 cells are thawed into a T150 flask (BD Falcon 355001) with 40 mL of pre-warmed complete media. Cells are cultured at 37° C., 5% CO2 for four hours prior to gently changing media. 99% of cells appear attached at this time point.
The flask is media changed at 24 hours post-thaw, the cells are imaged, media changed, and returned to the incubator. At this point, the cells appear healthy and about 25% confluent in the flask. Cells are typically passed 24-48 hours after thaw according to the following intervals and densities below. Cells are incubated at 30° C. for 48 hours prior to assay.
Using an automated patch clamp apparatus (IonWorks^HT), a three pulse protocol was applied by stepping from a holding potential of −80 mV to […] for 2 s, to activate hERG channels. The membrane voltage was then stepped back to −50 mV for 2 s to evoke a tail current prior to returning to the holding potential for 1 s. This sequence was repeated a further two times. This voltage protocol was applied prior to drug (Pre compound) and after 600 s in the presence of drug (Post compound).
The amplitude of the hERG tail current was calculated by measuring the difference between the maximum current on stepping to −50 mV of the third pulse (i.e. peak of the outward hERG tail current) and the current measured immediately prior to activation of any hERG current. This parameter was assessed before (pre tail current amplitude) and after 600 s incubation (post tail current amplitude) in drug. In order to assess the amount of block produced by test compounds, the data was first filtered using the IonWorks™ software to exclude any cells where the seal resistance was less than 50 MOhm. The remaining data was then exported to an excel compatible data file and only currents with tail currents greater than 250 pA were analyzed. The post/pre tail current amplitude ratio for the third pulse was calculated for each drug and control, and presented as percent inhibition.

T2 sequence (Q12809 whole entry): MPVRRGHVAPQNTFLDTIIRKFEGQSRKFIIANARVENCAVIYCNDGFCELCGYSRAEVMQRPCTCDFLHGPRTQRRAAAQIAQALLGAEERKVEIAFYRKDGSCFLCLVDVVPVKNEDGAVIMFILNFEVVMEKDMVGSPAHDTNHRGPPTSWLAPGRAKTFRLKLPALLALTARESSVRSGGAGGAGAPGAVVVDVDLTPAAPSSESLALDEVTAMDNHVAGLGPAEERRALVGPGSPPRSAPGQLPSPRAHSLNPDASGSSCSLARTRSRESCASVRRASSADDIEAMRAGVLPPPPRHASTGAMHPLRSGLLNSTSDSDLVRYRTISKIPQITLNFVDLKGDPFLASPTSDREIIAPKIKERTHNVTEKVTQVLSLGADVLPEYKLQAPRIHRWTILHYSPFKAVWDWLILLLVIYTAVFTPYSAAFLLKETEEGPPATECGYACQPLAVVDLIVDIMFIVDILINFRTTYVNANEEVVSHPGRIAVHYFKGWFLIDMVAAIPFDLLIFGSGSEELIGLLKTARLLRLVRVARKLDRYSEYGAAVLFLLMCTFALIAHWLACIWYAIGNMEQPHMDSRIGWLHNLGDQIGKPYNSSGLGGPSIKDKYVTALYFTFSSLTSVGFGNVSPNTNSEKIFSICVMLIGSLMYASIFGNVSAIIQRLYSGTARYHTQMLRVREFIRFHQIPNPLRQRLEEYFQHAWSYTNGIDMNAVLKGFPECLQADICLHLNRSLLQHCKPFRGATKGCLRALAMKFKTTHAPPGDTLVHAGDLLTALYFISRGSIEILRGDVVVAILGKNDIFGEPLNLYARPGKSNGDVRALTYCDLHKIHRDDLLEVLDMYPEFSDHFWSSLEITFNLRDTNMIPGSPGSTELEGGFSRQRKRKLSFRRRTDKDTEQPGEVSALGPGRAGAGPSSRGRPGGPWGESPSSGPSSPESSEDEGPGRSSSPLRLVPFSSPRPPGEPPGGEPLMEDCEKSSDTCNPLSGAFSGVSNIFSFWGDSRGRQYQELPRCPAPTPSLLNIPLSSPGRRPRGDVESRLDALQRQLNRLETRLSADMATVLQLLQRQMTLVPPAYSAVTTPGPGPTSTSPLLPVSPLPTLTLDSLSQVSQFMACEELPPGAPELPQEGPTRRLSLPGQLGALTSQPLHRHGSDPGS

For `COc1cc(NC(=O)C(=O)c2c(C)n(Cc3ccc(Cl)cc3)c3ccc(OC(F)(F)F)cc23)ccn1` [Compound 23, 2-(1-(4-chlorobenzyl)-2-methyl-5-(trifluoromethoxy)-1H-indol-3-yl)-N-(2-methoxypyridin-4-yl)-2-oxoacetamide], on FAAH, the IC50 was less than 100 nM. On hERG channel, the inhibition at 600 s, 1 µM is less than 25% and the inhibition at 600 s, 10 µM lay in the range of 50 to 75%.
In the same order, the values of `COc1cc(NC(=O)C(=O)c2c(C)n(Cc3ncc(Cl)cc3Cl)c3ccc(C)cc23)ccn1` [Compound 30, 2-(1-((3,5-dichloropyridin-2-yl)methyl)-2,5-dimethyl-1H-indol-3-yl)-N-(2-methoxypyridin-4-yl)-2-oxoacetamide] are less than 100 nM, less than 25% and 50 to 75%.
In the same order, the values of `COc1cc(NC(=O)C(=O)c2c(C)n(Cc3ncc(Cl)cc3Cl)c3ccccc23)ccn1` [Compound 31, 2-(1-((3,5-dichloropyridin-2-yl)methyl)-2-methyl-1H-indol-3-yl)-N-(2-methoxypyridin-4-yl)-2-oxoacetamide] are less than 100 nM, less than 25% and less than 25%.
Take `COc1ccc(Cn2c(C)c(C(=O)C(=O)Nc3ccnc(OC)c3)c3cc(OC)c(F)cc32)nc1` [Compound 32, 2-(6-fluoro-5-methoxy-1-((5-methoxypyridin-2-yl)methyl)-2-methyl-1H-indol-3-yl)-N-(2-methoxypyridin-4-yl)-2-oxoacetamide]: on FAAH, the IC50 was less than 100 nM. At hERG channel, the inhibition at 600 s, 1 µM was less than 25% and the inhibition at 600 s, 10 µM is less than 25%.
As for `COc1cc(NC(=O)C(=O)c2c(C)n(Cc3ncc(Cl)cc3F)c3ccc(C)cc23)ccn1` [Compound 33, 2-(1-((5-chloro-3-fluoropyridin-2-yl)methyl)-2,5-dimethyl-1H-indol-3-yl)-N-(2-methoxypyridin-4-yl)-2-oxoacetamide], at FAAH, the IC50 is less than 100 nM. Besides, at hERG channel, the inhibition at 600 s, 1 µM was less than 25% and the inhibition at 600 s, 10 µM was less than 25%.
Take `COc1cnc2c(c1)c(C(=O)C(=O)Nc1ccnc(OC)c1)c(C)n2Cc1ncc(Cl)cc1F` [Compound 34, 2-(1-((5-chloro-3-fluoropyridin-2-yl)methyl)-5-methoxy-2-methyl-1H-pyrrolo[2,3-b]pyridin-3-yl)-N-(2-methoxypyridin-4-yl)-2-oxoacetamide]: at FAAH, the IC50 was less than 100 nM. On hERG channel, the inhibition at 600 s, 1 µM was less than 25% and the inhibition at 600 s, 10 µM is less than 25%.
As to `COc1cc(NC(=O)C(=O)c2c(C)n(Cc3ccc(Cl)cc3)c3ccc(OC)nc23)ccn1` [Compound 36, 2-(1-(4-chlorobenzyl)-5-methoxy-2-methyl-1H-pyrrolo[3,2-b]pyridin-3-yl)-N-(2-methoxypyridin-4-yl)-2-oxoacetamide], on FAAH, the IC50 is less than 100 nM. Further, at hERG channel, the inhibition at 600 s, 1 µM is less than 25% and the inhibition at 600 s, 10 µM is less than 25%.
Take `COc1cc(NC(=O)C(=O)c2c(C)n(Cc3ccc(Cl)cc3)c3ccncc23)ccn1` [Compound 37, 2-(1-(4-chlorobenzyl)-2-methyl-1H-pyrrolo[3,2-c]pyridin-3-yl)-N-(2-methoxypyridin-4-yl)-2-oxoacetamide]: on FAAH, the IC50 is less than 100 nM. Besides, at hERG channel, the inhibition at 600 s, 1 µM fell in the range of 25 to 50% and the inhibition at 600 s, 10 µM was 50 to 75%.
In the same order, the values of `COc1cnc2c(c1)c(C(=O)C(=O)Nc1ccnc(OC)c1)c(C)n2Cc1ccc(Cl)cc1` [Compound 38, 2-(1-(4-chlorobenzyl)-5-methoxy-2-methyl-1H-pyrrolo[2,3-b]pyridin-3-yl)-N-(2-methoxypyridin-4-yl)-2-oxoacetamide] are less than 100 nM, less than 25% and 25 to 50%.
The matching figures for `COc1ccc(Cn2c(C)c(C(=O)C(=O)Nc3ccnc(OC)c3)c3cc(OC)cnc32)nc1` [Compound 40, 2-(5-methoxy-1-((5-methoxypyridin-2-yl)methyl)-2-methyl-1H-pyrrolo[2,3-b]pyridin-3-yl)-N-(2-methoxypyridin-4-yl)-2-oxoacetamide]: less than 100 nM, less than 25% and less than 25%.
The matching figures for `COc1cnc2c(c1)c(C(=O)C(=O)Nc1ccnc(OC)c1)c(C)n2Cc1ccc(Cl)cn1` [Compound 41, 2-(1-((5-chloropyridin-2-yl)methyl)-5-methoxy-2-methyl-1H-pyrrolo[2,3-b]pyridin-3-yl)-N-(2-methoxypyridin-4-yl)-2-oxoacetamide]: less than 100 nM, less than 25% and 25 to 50%.
Turning to `COc1cnc2c(c1)c(C(=O)C(=O)Nc1ccnc(OC)c1)c(C)n2Cc1ccc(Cl)cc1Cl` [Compound 42, 2-(1-(2,4-dichlorobenzyl)-5-methoxy-2-methyl-1H-pyrrolo[2,3-b]pyridin-3-yl)-N-(2-methoxypyridin-4-yl)-2-oxoacetamide], the IC50 at FAAH was less than 100 nM. At hERG channel, the inhibition at 600 s, 1 µM was less than 25% and the inhibition at 600 s, 10 µM lay within 50 to 75%.
The matching figures for `COc1ccc(Cn2c(C)c(C(=O)C(=O)Nc3ccnc(OC)c3)c3cc(OC)ccc32)nc1` [Compound 43, 2-(5-methoxy-1-((5-methoxypyridin-2-yl)methyl)-2-methyl-1H-indol-3-yl)-N-(2-methoxypyridin-4-yl)-2-oxoacetamide]: 100 to 1000 nM, less than 25% and less than 25%.
In the same order, the values of `COc1cc(NC(=O)C(=O)c2c(C)n(Cc3ccc(Cl)cc3)c3cc(OC)c(OC)cc23)ccn1` [Compound 44, 2-(1-(4-chlorobenzyl)-5,6-dimethoxy-2-methyl-1H-indol-3-yl)-N-(2-methoxypyridin-4-yl)-2-oxoacetamide] are less than 100 nM, less than 25% and less than 25%.
The matching figures for `COc1cc(NC(=O)C(=O)c2c(C)n(Cc3ccc(Cl)cc3)c3cccc(OC)c23)ccn1` [Compound 45, 2-(1-(4-chlorobenzyl)-4-methoxy-2-methyl-1H-indol-3-yl)-N-(2-methoxypyridin-4-yl)-2-oxoacetamide]: less than 100 nM, less than 25% and less than 25%.
For `COc1ccc2c(c1)c(C(=O)C(=O)Nc1ccnc(OC)n1)c(C)n2Cc1ccc(Cl)cc1` [Compound 46, 2-(1-(4-chlorobenzyl)-5-methoxy-2-methyl-1H-indol-3-yl)-N-(2-methoxypyrimidin-4-yl)-2-oxoacetamide], on FAAH, the IC50 was less than 100 nM. In addition, at hERG channel, the inhibition at 600 s, 1 µM was less than 25% and the inhibition at 600 s, 10 µM is less than 25%.
With `COc1ccc2c(c1)c(C(=O)C(=O)Nc1cc(Cl)nc(OC)c1)c(C)n2Cc1ccc(Cl)cc1` [Compound 47, N-(2-chloro-6-methoxypyridin-4-yl)-2-(1-(4-chlorobenzyl)-5-methoxy-2-methyl-1H-indol-3-yl)-2-oxoacetamide], the IC50 on FAAH was less than 100 nM. On hERG channel, the inhibition at 600 s, 1 µM was less than 25% and the inhibition at 600 s, 10 µM is less than 25%.
